In US8232253B2, “Treatment of lung cancer” (Ramot at Tel-Aviv University Ltd., priority 2006, dated 2012):

Test system: human lung cancer cell lines A549, H23, HTB54, H-1299, HTB-58 (SK-MES-1)
Experiment: Growth inhibition of human lung cancer cell lines by direct cell counting
Assay type: cell-based
Settings: range over A549, H23, HTB54, H-1299, HTB-58 (SK-MES-1), read-out: IC50 of growth inhibition, depending on the cell line
Procedure: FTS was provided by Concordia Pharmaceuticals, Inc. (Ft. Lauderdale, Fla.). All cell lines were obtained from American Type Culture Collection (“ATCC”) (Manassas, Va.). A549 cells, non-small-cell lung carcinoma (CCL, ATCC) cells, were cultured in Kaighn's modification of Ham's F-12 medium containing 1.5 g/l sodium bicarbonate, 10% fetal calf serum (FCS), 100 U/ml penicillin, and 100 μg/ml streptomycin. HTB54 lung carcinoma cells were cultured in McCoy's 5A medium with 10% FCS, 100 U/ml penicillin, and 10 μg/ml streptomycin. HTB-58 (SK-MES-1, ATCC), a human lung squamous cell carcinoma cell line, was cultured in Eagle's minimum essential medium with 2 mM L-glutamine and Earle's BSS, 1.5 g/l sodium bicarbonate, 0.1 mM non-essential amino acids, 1 mM sodium pyruvate, 10% FCS, 100 U/ml penicillin, and 100 μg/ml streptomycin. […] Cells were treated with the indicated concentrations of FTS (Concordia Pharmaceuticals, Sunrise Fla.) or with 0.1% Me2SO4 (DMSO) (vehicle) 24 h after plating and were counted 5 days later. Dead cells were counted after addition of Hoechst 33258 dye (Sigma-Aldrich, St. Louis, Mo.); 1 μg/ml) to vehicle-treated control cultures or to cultures treated for 24 or 48 h with 75 μM FTS. Fluorescence images were collected 5 min after the dye was added. […]

SMILES: CC(C)=CCC/C(C)=C/CC/C(C)=C/CSc1ccccc1C(=O)O [FTS, S-farnesylthiosalicylic acid]
- IC50: 30 to 75 µM
